According to US20210393610A1, “COMPOSITIONS AND METHODS FOR TREATING GOUT AND HYPERURICEMIA” (Jiangsu Hengrui Medicine Co., Ltd., priority 2018, published 2021):

Legend:
[1] = PK interaction of the compound of Formula I-1, febuxostat and colchicine (PK parameters in plasma); settings: for AUC: plasma, oral, AUCss of the compound of Formula I-1, geometric mean
Experimental: (§1) The subjects were screened and examined on D-21 to D-15. 0.5 mg of colchicine once a day (qd) were orally administered to those who passed the screening on an empty stomach (D-14 to D16). If the subject was receiving an uric acid-lowering therapy (including allopurinol, febuxostat, benzbromarone, probenecid and the like) at the time of screening, the drug should be withdrawn for at least 2 weeks before D1. The subjects were admitted to the phase I clinical trial ward on D-2, and medical history inquiry, physical examination, vital signs examination, 12-lead electrocardiogram (ECG) examination, blood pregnancy examination (for female of childbearing age) were conducted again [if D-2 was more than 20 days away from the screening period, then blood examination, urine routine examination, CK\CK-MB, blood biochemistry (including serum creatinine and uric acid) examination were also required].
During the hospital stay, the subjects were fasted for more than 10 hours after dinner everyday (with free access to water). […] On D2, the subjects on an empty stomach were subjected to blood sampling, followed by having a standard meal which should be eaten within 20 minutes. Except for before the drug administration and 1 hour after the drug administration, water was consumed as needed at other times. On D3 to 8, no less than 2 L of water was consumed daily. On D9, the subjects can be discharged from the hospital after completing relevant examinations and operations, with a total hospital stay of 10 days. On D16 to 23, the subjects came back to the phase I clinical trial ward for follow-up. Throughout the study period, the subjects should avoid strenuous exercise and prolonged bed rest. The drug administration scheme is detailed in Table 1.
Colchicine tablets: D-14 to D16, 0.5 mg qd, orally administered on an empty stomach; Febuxostat tablets: D1 and D8, 80 mg qd, orally administered on an empty stomach; Tablets of the compound of Formula I-1: D3 to D8, 10 mg qd, orally administered on an empty stomach.
G. Main Observation Indicator • i. PK parameters of the compound of Formula I-1, febuxostat (Ruiyang®) and colchicine in plasma.

[2] = test system: serum uric acid (sUA); assay: PD interaction: serum uric acid (sUA) level after separate and combined administration; assay type: in vivo, patients suffering from gout
Experimental: as §1
During the hospital stay, the subjects were fasted for more than 10 hours after dinner everyday (with free access to water). […] On D2, the subjects on an empty stomach were subjected to blood sampling, followed by having a standard meal which should be eaten within 20 minutes. Except for before the drug administration and 1 hour after the drug administration, water was consumed as needed at other times. On D3 to 8, no less than 2 L of water was consumed daily. […]

[3] = test system: sUA; settings: after 6 months; febuxostat alone group; cited from earlier work
[4] = febuxostat alone group v.s. lesinurad 400 mg plus febuxostat group; cited from earlier work
[5] = combined administration with febuxostat 80 mg
[6] = combined administration with the compound of Formula I-1, no statistical difference (P>0.05)
[7] = impact of compound of Formula I-1 on colchicine
[8] = impact of febuxostat on colchicine
[9] = single administration (colchicine 0.5 mg qd)
[10] = impact of febuxostat on the compound of Formula I-1

COc1cc2c(c(OC)c1OC)-c1ccc(OC)c(=O)cc1[C@@H](NC(C)=O)CC2 [colchicine]
Css, max of colchicine, geometric mean ([1]; combined administration with compound of Formula I-1 10 mg qd): 2.2048 ng/mL | AUCss of colchicine, geometric mean [1, 5]: 18.3270 ng·h/mL | Css, max of colchicine, geometric mean [1, 5]: 2.2601 ng/mL | decrease of Css,max of colchicine ([1]; combined administration with febuxostat, no statistical difference (P>0.05)): 9.92% | decrease of AUCss of colchicine [1, 6]: 9.84% | decrease of Css,max of colchicine [1, 6]: 12.12% | AUCss of colchicine, Ratio (combined administration vs single administration) [1, 7]: 90.16% | Css, max of colchicine, Ratio (combined administration vs single administration) [1, 7]: 87.88% | AUCss of colchicine, Ratio (combined administration vs single administration) [1, 8]: 99.43% | Css, max of colchicine, Ratio (combined administration vs single administration) [1, 8]: 90.08% | AUCss of colchicine, geometric mean [1, 9]: 18.4329 ng·h/mL | Css, max of colchicine, geometric mean [1, 9]: 2.5089 ng/mL

O=C([O-])C1(Sc2ccnc3ccc(Br)cc23)CCC1.[Na+] [compound of Formula I-1]
effect of febuxostat on the steady-state exposure level of the compound of Formula I-1 ([1]; combined administration of febuxostat and the compound of Formula I-1): substantially no effect | Css, max of the compound of Formula I-1, geometric mean ([1]; combined administration with febuxostat 80 mg (colchicine background)): 1687.45 ng/mL | AUC ([1]; human, combined administration with febuxostat 80 mg (colchicine background)): 14700 ng·h/mL | AUC ([1]; human, single administration, 10 mg qd (colchicine 0.5 mg qd background)): 14400 ng·h/mL | AUCss of the compound of Formula I-1, Ratio (combined administration vs single administration) [1, 10]: 102.31% | Css, max of the compound of Formula I-1, Ratio (combined administration vs single administration) [1, 10]: 101.68% | Css, max of the compound of Formula I-1, geometric mean ([1]; single administration, 10 mg qd (colchicine 0.5 mg qd background)): 1659.60 ng/mL | average maximum reduction of serum sUA concentration ([2]; compound of Formula I-1 10 mg qd administered sequentially, relative to baseline (D3-0 h)): 60.883%

Cc1nc(-c2ccc(OCC(C)C)c(C#N)c2)sc1C(=O)O [febuxostat]
AUC0-last of febuxostat, Ratio (combined administration vs single administration) ([1]; human, in vivo): 88.54% | Cmax of febuxostat, Ratio (combined administration vs single administration) ([1]; human, in vivo): 86.42% | average maximum reduction of serum uric acid (sUA) concentration ([2]; single administration of febuxostat 80 mg, compared with single administration of colchicine at steady state): 22.144% | proportion of patients who achieved sUA<5.0 mg/dl [3]: 46.8% | incidence of kidney-related adverse events [4]: 5.5% | serum creatinine increased ≥ 1.5 times the baseline [4]: 2.8% | serum creatinine increased ≥2 times the baseline [4]: 0%
